Measurements taken from patent US8343957B2, “Therapeutic pyrazoloquinoline urea derivatives” (Dart Neuroscience (Cayman) Ltd., priority 2007, dated 2013).

Biological target: GABAA central benzodiazepine receptor
Assay: Benzodiazepine Binding Assay
Settings: read-out: BZ binding Assay IC50; 1 nM (3H)-flunitrazepam, rat whole brain (except cerebellum) membranes, 60 minutes at 25° C.

| IC50 [nM] | SMILES |
| --- | --- |
| < 1000 | CC(C)N1CCN(C(=O)n2cc3c(=O)n(-c4ccccc4)nc-3c3cc(F)ccc32)CC1 [Compd 19, 5-(4-Isopropylpiperazine-1-carbonyl)-8-fluoro-2-phenyl-2,5-dihydro-pyrazolo-(4,3-c)quinolin-3-one] |
| < 1000 | COc1ccc2c(c1)c1nn(-c3ccccc3)c(=O)c-1cn2C(=O)N1CCN(C)CC1 [Compd 42, 8-Methoxy-5-(4-methylpiperazine-1-carbonyl)-2-phenyl-2,5-dihydro-pyrazolo-(4,3-c)quinolin-3-one] |
| < 1000 | CN1CCN(C(=O)n2cc3c(=O)n(-c4ccccc4)nc-3c3cc(C(F)(F)F)ccc32)CC1 [Compd 45, 5-(4-Methylpiperazine-1-carbonyl)-2-phenyl-8-trifluoromethyl-2,5-dihydro-pyrazolo[4,3-c]quinolin-3-one] |
| < 1000 | Cc1ccc2c(c1)c1nn(-c3ccccc3)c(=O)c-1cn2C(=O)N1CCN(C)CC1 [Compd 26, 5-(4-Methylpiperazine-1-carbonyl)-8-methyl-2-phenyl-2,5-dihydro-pyrazolo-(4,3-c)quinolin-3-one] |

The next lines start with the compound.

| SMILES | IC50 [nM] |
| --- | --- |
| O=C(N1CCCCC1)n1cc2c(=O)n(-c3ccccc3)nc-2c2ccccc21 [Compd 12, 5-(Piperidine-1-carbonyl)-2-phenyl-2,5-dihydro-pyrazolo-(4,3-c)quinolin-3-one] | < 1000 |
| CC(C)N1CCN(C(=O)n2cc3c(=O)n(-c4ccccc4F)nc-3c3ccccc32)CC1 [Compd 15, 5-(4-Isopropylpiperazine-1-carbonyl)-2-(2′-fluorophenyl)-2,5-dihydro-pyrazolo-(4,3-c)quinolin-3-one] | < 1000 |
| CC(C)N1CCN(C(=O)n2cc3c(=O)n(-c4ccccc4)nc-3c3ccccc32)CC1 [Compd 8, 5-(4-Isopropylpiperazine-1-carbonyl)-2-phenyl-2,5-dihydro-pyrazolo-(4,3-c)quinolin-3-one] | < 1000 |
| CC(C)N1CCN(C(=O)n2cc3c(=O)n(-c4ccccn4)nc-3c3cc(F)c(F)cc32)CC1 [Compd 53, 5-(4-Isopropylpiperazine-1-carbonyl)-7,8-difluoro-2-(2′-pyridyl)-2,5-dihydro-pyrazolo-[4,3-c]quinolin-3-one] | > 1000 |
| CN1CCN(C(=O)n2cc3c(=O)n(-c4ccsc4)nc-3c3cc(F)c(F)cc32)CC1 [Compd 49, 5-(4-Methylpiperazine-1-carbonyl)-2-(thiophen-3-yl)-7,8-difluoro-2,5-dihydro-pyrazolo[4,3-c]quinolin-3-one] | < 1000 |
